Here are results for 7 compounds from article PMC10254235, “Design, Synthesis, and Anti-Cervical Cancer and Reversal of Tumor Multidrug Resistance Activity of Novel Nitrogen-Containing Heterocyclic Chalcone Derivatives” (Molecules, 2023).

Read-outs that look alike come from different tables or passages of the source.

One data set has as its system HUVEC cells. As to the kind of experiment: In vitro HUVEC inhibitory assay (MTT). The class given is cell-based. The settings on record: Homo sapiens, 48 h, ± SD. Here is the method:
(§1) HeLa and SiHa cell lines were obtained from the Procell Life Science Technology Co., Ltd. (Wuhan, China); H8 cell line was obtained from the Shanghai HonSun Biological Technology Co., Ltd. (Shanghai, China); HUVEC cell line was obtained from the Saibaikang (Shanghai) Biotechnology Co., Ltd. (Shanghai, China); HeLa/DDP cell line was obtained from the Guangzhou Jenniobio Biotechnology Co., Ltd. (Guangzhou, China). HeLa, SiHa, H8, and HeLa/DDP cells were cultured in DMEM medium (HyClone). The VEGF of 50 ng/mL was used as the promoter of the VEGFR-2 receptor on HUVEC cell membrane surfaces, and their inhibitory effects on VEGFR-2 were determined. All the mediums were supplemented with 10% FBS (HyClone, GE Healthcare, Australia). Cells were maintained at subconfluency at 37 °C in humidified air containing 5% CO2. The cells were monitored daily and maintained at 80% cell density. All compounds tested were dissolved in DMSO and then diluted by the culture medium before the treatment of cultured cells. Identification reports are available for all types of cell lines involved in this study.
(§2) The cytotoxicity of the target compounds were measured in vitro using the MTT assay. Cells grown in the logarithmic phase were counted and seeded in 96-well cell culture plates (5 × 10^3 cells per well) for 24 h to allow attachment of cells to the wall of the plate. […] Next, 20 μL of 5 mg.mL^−1 MTT solution was added to each well and cultured for 4 h. The old solution was discarded, replaced with 150 μL DMSO solution per well, and shaken for 10 min. The OD value was measured under 490 nm, and the inhibition rate was calculated. The nonlinear regression fitting of the cell growth rate was carried out using SPSS 23.0 software, and the IC50 of the compound was calculated. […] There were 6 compound holes in each group, and the experimental results were presented as the average of 3 experiments. A complete medium containing only cells was used as the blank control, whereas a complete medium without cells was the negative control group. Cisplatin and sorafenib were utilized as the positive control group, and the target compound was the experimental intervention group.
After incubation for 24 h, the cell was collected using centrifugation and washed twice using PBS chilled to 0 °C. Then, the cells were homogenized in RIPA lysis buffer and 1% PMSF, 1% mixed phosphatase inhibitor (Solarbio, Beijing, China). The lysates were incubated on ice for 30 min, intermittently vortexed every 5 min, and centrifuged at 12,000 rpm for 20 min to harvest the supernatants.

For data set [1], the target named is T1, VEGFR-2 (Homo sapiens, UniProt P35968).
T1 construct: endogenous in cells; host or cells: HeLa cells
In words: VEGFR-2 inhibition test (human p-VEGFR-2 ELISA in HeLa cells). The class given is cell-based. Particulars: ± SD, read-out: 48h IC50 VEGFR-2 inhibitory effect. Background: ELISA stands for enzyme-linked immunosorbent assay.
Description: Specimens, standards, and HRP-labeled detection antibodies were added sequentially to the pre-covered microtiter wells containing phosphorylated vascular endothelial growth factor receptor 2 (p-VEGFR2) antibodies, warmed, and washed thoroughly. The substrate TMB was added for color development. This substrate is converted to blue using peroxidase catalysis to a final yellow color due to the action of acid. […] Curve fitting was performed using SPSS 23.0 software to calculate IC50.

Another data set relates to H8 cells. In words: MTT cytotoxicity assay, normal cervical epithelial H8 cells. Format: cell-based, human. The settings on record: Homo sapiens, 48 h, mean ± SD. As for the experimental part:
as §1, §2

The subject of data set [2] is HeLa cells. As to the kind of experiment: MTT antiproliferative assay, HeLa cells. The class given is cell-based, human. Particulars: Homo sapiens, 48 h. As for the experimental part:
as §1, §2
For orientation: Formazan colour is commonly taken as a measure of viable cells.

The test system of the next data set is HeLa/DDP cells. In words: MTT assay, cisplatin-resistant HeLa/DDP cells. The class given is cell-based, human. Particulars: for RI (resistance index): HeLa/DDP versus HeLa; for IC50: Homo sapiens, 48 h, read-out: 48h IC50 HeLa/DDP.
A further data set deals with SiHa cells. In words: MTT antiproliferative assay, SiHa cells. Format: cell-based, human. The settings on record: Homo sapiens, 48 h, mean ± SD. Here is the method: as §1, §2
Data set [3] relates to HeLa cells. In words: Apoptosis analysis, Annexin V-FITC/PI flow cytometry. Format: cell-based, human. The settings on record: 4 μM, 24 h. As for the experimental part: After incubation, cells were harvested and incubated using […] of Annexin-V/FITC (BD, America) in binding buffer (10 mM HEPES, 140 mM NaCl, and 2.5 mM CaCl2 at pH 7.4) at room temperature for 15 min. The PI solution was then added to the medium for another 10 min incubation. Almost 10,000 events were collected for each sample and analyzed using flow cytometry (BD, LSRFortessa, New York, NY, USA). The procedure for the remaining Western blot was the same as in Section 3.3.3.
(A flow cytometer gives signals particle by particle.)

Data set [4] deals with VEGFR-2. Particulars: read-out: IC50 against VEGFR-2; cited from earlier work.
Another data set deals with PC-3 cells. Particulars: cytotoxic effect; cited from earlier work.
The test system of the next data set is MCF-7 cells. Particulars: cytotoxic effect; cited from earlier work.
For another data set, the system named is HepG2 cells. Particulars: cited from earlier work.
Where [5] appears, read: MTT, mean ± SD, read-out: 48h IC50 HeLa.
[6] abbreviates: single agent, read-out: 48h IC50 HeLa (Table 4).
Setting [7] is: cisplatin-resistant HeLa/DDP cells, single agent.

T1 sequence (P35968 20-1356): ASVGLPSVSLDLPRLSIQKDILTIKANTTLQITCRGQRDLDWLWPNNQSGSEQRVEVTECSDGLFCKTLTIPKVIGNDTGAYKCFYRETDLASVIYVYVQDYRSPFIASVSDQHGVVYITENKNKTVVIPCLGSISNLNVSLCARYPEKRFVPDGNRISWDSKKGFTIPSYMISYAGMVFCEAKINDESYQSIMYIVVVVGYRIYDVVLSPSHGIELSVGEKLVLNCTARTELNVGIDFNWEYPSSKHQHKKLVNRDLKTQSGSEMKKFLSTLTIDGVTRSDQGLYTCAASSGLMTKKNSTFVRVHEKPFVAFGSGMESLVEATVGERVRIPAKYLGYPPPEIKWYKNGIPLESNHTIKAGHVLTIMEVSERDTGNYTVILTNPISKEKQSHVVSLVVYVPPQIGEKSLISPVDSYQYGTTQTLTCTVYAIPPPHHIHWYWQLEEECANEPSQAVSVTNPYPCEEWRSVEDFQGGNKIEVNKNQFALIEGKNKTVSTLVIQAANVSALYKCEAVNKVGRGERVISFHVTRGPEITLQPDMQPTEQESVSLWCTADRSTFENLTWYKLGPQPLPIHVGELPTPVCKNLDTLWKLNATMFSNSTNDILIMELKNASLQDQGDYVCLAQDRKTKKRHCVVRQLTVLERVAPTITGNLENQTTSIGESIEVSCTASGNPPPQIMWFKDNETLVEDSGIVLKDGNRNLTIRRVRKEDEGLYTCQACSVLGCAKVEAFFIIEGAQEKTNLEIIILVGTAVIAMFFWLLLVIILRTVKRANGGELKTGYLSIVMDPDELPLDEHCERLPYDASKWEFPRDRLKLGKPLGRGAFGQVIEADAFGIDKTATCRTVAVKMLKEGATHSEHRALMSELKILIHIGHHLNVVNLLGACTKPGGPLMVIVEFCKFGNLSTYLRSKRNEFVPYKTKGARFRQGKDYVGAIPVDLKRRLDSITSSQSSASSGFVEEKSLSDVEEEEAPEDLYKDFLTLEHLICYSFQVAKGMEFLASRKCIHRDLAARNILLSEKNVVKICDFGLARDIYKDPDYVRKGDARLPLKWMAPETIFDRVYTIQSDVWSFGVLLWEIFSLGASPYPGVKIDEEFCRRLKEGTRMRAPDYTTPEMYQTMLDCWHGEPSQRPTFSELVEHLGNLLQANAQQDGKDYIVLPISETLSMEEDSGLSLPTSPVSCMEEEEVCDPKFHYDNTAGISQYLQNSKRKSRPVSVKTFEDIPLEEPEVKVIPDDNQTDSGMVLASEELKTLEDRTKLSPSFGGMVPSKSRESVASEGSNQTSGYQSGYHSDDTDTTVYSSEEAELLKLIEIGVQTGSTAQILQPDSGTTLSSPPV
Description for HeLa/DDP cells: The cytotoxicity of the target compounds were measured in vitro using the MTT assay. Cells grown in the logarithmic phase were counted and seeded in 96-well cell culture plates (5 × 10^3 cells per well) for 24 h to allow attachment of cells to the wall of the plate. […] Next, 20 μL of 5 mg.mL^−1 MTT solution was added to each well and cultured for 4 h. The old solution was discarded, replaced with 150 μL DMSO solution per well, and shaken for 10 min. The OD value was measured under 490 nm, and the inhibition rate was calculated. The nonlinear regression fitting of the cell growth rate was carried out using SPSS 23.0 software, and the IC50 of the compound was calculated. […] A complete medium containing only cells was used as the blank control, whereas a complete medium without cells was the negative control group.
To reduce the adverse reactions caused by the fixation of drug resistance reversal agents, the concentration that reduces the proliferation rate of tumor cells by less than 10% was selected.

Take `COc1cc(O)c(C(=O)/C=C/c2ccc(CN3CCC(C)CC3)cc2)cc1CN1CCCC1` [6k, (E)-1-(2-hydroxy-4-methoxy-5-(pyrrolidin-1-ylmethyl)phenyl)-3-(4-((4-methylpiperidin-1-yl)methyl)phenyl)prop-2-en-1-one]: the IC50 in the data set with HUVEC cells came out at 20.2 ± 1.19 µM; on VEGFR-2 [1], 1.67 ± 0.18 µM; in the data set on H8 cells, 30.1 ± 0.44 µM; with HeLa cells [2] (setting [5]), 15.22 ± 0.08 µM; with HeLa cells [2] (setting [6]), 15.22 ± 0.08 µM; in the data set with HeLa/DDP cells (setting [7]) it was 17.3 ± 2.07 µM. Also, in the data set with SiHa cells, the IC50 is 24.83 ± 0.17 µM. Further, the “RI (resistance index)” value in the data set with HeLa/DDP cells (single agent) is on record as 1.13.

Compound `COc1cc(O)c(C(=O)/C=C/c2ccc(CN3CCC(C)CC3)cc2)cc1CN1CCOCC1` [6o, (E)-1-(2-hydroxy-4-methoxy-5-(morpholinomethyl)phenyl)-3-(4-((4-methylpiperidin-1-yl)methyl)phenyl)prop-2-en-1-one] showed a melting point of 104.2 to 105.4 °C. The compound also displayed an IC50 in the data set on H8 cells of 80 ± 8.92 µM. Further, the IC50 in the data set on HeLa cells [2] (setting [5]) came to 65.8 ± 1.36 µM. Besides, the IC50 in the data set with SiHa cells came out at 63.7 ± 2.18 µM.

Regarding `O=C(/C=C/c1ccccc1)c1ccccc1` [Chalcone], the IC50 in the data set on HUVEC cells is 77.5 ± 4.2 µM; on VEGFR-2 [1], more than 20 µM; in the data set with H8 cells, 77.7 ± 6.85 µM; with HeLa cells [2] (setting [5]) it was 74 ± 4.48 µM; in the data set on HeLa cells [2] (setting [6]), 74 ± 4.48 µM; in the data set with HeLa/DDP cells (setting [7]), 91 ± 6.22 µM. The compound further yielded an IC50 in the data set with SiHa cells of 66.5 ± 2.88 µM. The “RI (resistance index)” value in the data set with HeLa/DDP cells (single agent) worked out at 1.23.

With `CNC(=O)c1cc(Oc2ccc(NC(=O)Nc3ccc(Cl)c(C(F)(F)F)c3)cc2)ccn1` [Sorafenib, reference compound], the IC50 in the data set with HUVEC cells worked out at 9.2 ± 1.22 µM; in the data set with H8 cells, 18.4 ± 1.04 µM; in the data set with HeLa cells [2] (setting [5]) it was 10.8 ± 0.15 µM; in the data set on HeLa cells [2] (setting [6]), 10.8 ± 0.15 µM; with HeLa/DDP cells (HeLa), 12.4 ± 0.54 µM; with SiHa cells, 15 ± 1.2 µM. This compound also registered a proapoptotic rate with HeLa cells [3] of 31.7%.

For `CNC(=O)c1cc(Oc2ccc(C(=O)/C=C/c3cccc(Br)c3)cc2)ccn1` [compound 7], the IC50 in the data set with VEGFR-2 [4] was 0.72 µM.

As to `CNC(=O)c1cc(Oc2ccc(C(=O)/C=C/c3cc(OC)c(OC)c(OC)c3)cc2)ccn1` [compound 8], the IC50 with PC-3 cells is 3.15 ± 0.81 µM; in the data set with MCF-7 cells, 3.88 ± 1.03 µM; in the data set on HepG2 cells (cytotoxic effect, HepG2 cells) it was 0.56 ± 0.83 µM; with VEGFR-2 [4], 3.2 µM. Besides, in the data set on HepG2 cells (HepG2, MCF-7 and PC-3 cells), the “cytotoxic activity relative to sorafenib” value was 1.03–6.14 times.

With `CNC(=O)c1cc(Oc2ccc(C(=O)/C=C/c3ccccc3)cc2)ccn1` [compound 9], in the data set on VEGFR-2 [4], the IC50 was 1.1 µM.

By melting point is commonly meant the temperature, or range, at which the solid turns liquid.
